What follows are compounds tested against T1, Glutathionylspermidine synthase (Crithidia fasciculata) (UniProt P90518) (assay: Compound was tested for inhibitory activity against glutathionyl spermidine synthetase in the presence of 5 mM glutathione and spermidine.).
T1 sequence (whole entry): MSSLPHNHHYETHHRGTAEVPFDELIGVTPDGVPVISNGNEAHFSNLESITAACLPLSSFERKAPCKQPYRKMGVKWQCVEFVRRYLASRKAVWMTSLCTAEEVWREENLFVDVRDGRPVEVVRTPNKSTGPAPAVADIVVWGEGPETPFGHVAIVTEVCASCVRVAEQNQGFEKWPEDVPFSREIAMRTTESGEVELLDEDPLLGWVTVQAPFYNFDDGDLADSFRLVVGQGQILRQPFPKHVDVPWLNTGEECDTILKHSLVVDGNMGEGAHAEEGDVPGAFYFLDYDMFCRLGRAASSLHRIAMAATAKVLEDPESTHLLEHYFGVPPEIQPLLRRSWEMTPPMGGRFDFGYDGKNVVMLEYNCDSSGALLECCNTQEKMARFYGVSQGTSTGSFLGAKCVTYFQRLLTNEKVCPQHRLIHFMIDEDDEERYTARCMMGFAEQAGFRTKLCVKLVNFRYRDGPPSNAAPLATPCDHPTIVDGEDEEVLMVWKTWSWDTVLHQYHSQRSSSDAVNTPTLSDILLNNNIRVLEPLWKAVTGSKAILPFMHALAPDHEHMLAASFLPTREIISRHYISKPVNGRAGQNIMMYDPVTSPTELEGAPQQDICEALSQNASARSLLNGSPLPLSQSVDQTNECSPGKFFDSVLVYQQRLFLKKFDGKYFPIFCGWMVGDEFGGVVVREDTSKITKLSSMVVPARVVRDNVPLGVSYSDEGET

| SMILES | inhibition [%] |
| --- | --- |
| COC(=O)CCP(=O)(O)C(C)NC(=O)[C@@H](NC(=O)[C@@H](N)CCC(=O)O)C(C)C (some centres undefined) | 15 |

These compounds were tested against T2, Glutathionylspermidine synthase (Crithidia fasciculata, UniProt P90518) (assay: Compound was tested for linear non-competitive inhibitory activity against glutathionylspermidine synthetase.).
T2 sequence (P90518 whole entry): T1 sequence (whole entry)

| SMILES | Ki [µM] |
| --- | --- |
| CC(C)[C@H](NC(=O)[C@@H](N)CCC(=O)O)C(=O)NCP(=O)(O)O | 290 |
| CC(C)C[C@H](NC(=O)[C@@H](N)CCC(=O)O)C(=O)NCP(=O)(O)O | 60 |

These compounds were tested against T1, Glutathionylspermidine synthase (Crithidia fasciculata) (assay: Compound was tested for inhibitory activity against glutathionylspermidine synthetase in the presence of 5 mM glutathione and spermidine; Not inhibition).

| SMILES | inhibition |
| --- | --- |
| CC(C)C[C@H](NC(=O)[C@@H](N)CCC(=O)O)C(=O)Nc1ccc(CP(=O)(O)O)cc1 | No inhibition |
| CC(C)[C@H](NC(=O)[C@@H](N)CCC(=O)O)C(=O)NCC(=O)CP(=O)(O)O | No inhibition |
| CC(C)[C@H](NC(=O)[C@@H](N)CCC(=O)O)C(=O)NCCCP(=O)(O)O | No inhibition |
| CC(C)[C@H](NC(=O)[C@@H](N)CCC(=O)O)C(=O)NCC(O)CP(=O)(O)O (some centres undefined) | No inhibition |
| CC(C)[C@H](NC(=O)[C@@H](N)CCC(=O)O)C(=O)NCCP(=O)(O)O | No inhibition |

These compounds were tested against T1, Glutathionylspermidine synthase (Crithidia fasciculata) (assay: Compound was tested for inhibitory activity against glutathionylspermidine synthetase in the presence of 5 mM glutathione and spermidine.).

| SMILES | inhibition [%] |
| --- | --- |
| CC(C)[C@H](NC(=O)[C@@H](N)CCC(=O)O)C(=O)NC(C)P(C)(=O)O (some centres undefined) | 14 |
| CC(C)[C@H](NC(=O)[C@@H](N)CCC(=O)O)C(=O)NCP(=O)(O)CCC(N)=O | 11 |
| CC(C)C[C@H](NC(=O)[C@@H](N)CCC(=O)O)C(=O)NCC(=O)CP(=O)(O)O | 62 |
| CC(C)[C@H](NC(=O)[C@@H](N)CCC(=O)O)C(=O)NC[PH](=O)O | 50 |
| COC(=O)CCP(=O)(O)CNC(=O)[C@@H](NC(=O)[C@@H](N)CCC(=O)O)C(C)C | 71 |
| CC(C)C[C@H](NC(=O)[C@@H](N)CCC(=O)O)C(=O)NCCCP(=O)(O)O | 24 |
| CC(C)[C@H](NC(=O)[C@@H](N)CCC(=O)O)C(=O)NCP(C)(=O)O | 26 |
| CC(C)[C@H](NC(=O)[C@@H](N)CCC(=O)O)C(=O)NCP(=O)(O)O | 78 |
| CC(C)C[C@H](NC(=O)[C@@H](N)CCC(=O)O)C(=O)NCP(=O)(O)O | 86 |
| CC(C)[C@H](NC(=O)[C@@H](N)CCC(=O)O)C(=O)NCC(N)CP(=O)(O)O (some centres undefined) | 10 |
| CC(C)C[C@H](NC(=O)[C@@H](N)CCC(=O)O)C(=O)NCP(=O)(Oc1ccccc1)Oc1ccccc1 | 76 |

— ChEMBL document CHEMBL1128960, “Phosphonic acid and phosphinic acid tripeptides as inhibitors of glutathionylspermidine synthetase” (Bioorg Med Chem Lett, 1996)
